Test results reported in paper PMC10158552 (Biomedicine & Pharmacotherapy, 2023).

System: SARS-CoV-2 Delta
Type: cell-based
Details: 346 µM compounds, 480 µg/ml antibodies

Casirivimab: monoclonal Ab administered intravenously in patients, used as positive control (Roche)
viral replication of SARS-CoV-2, basal treatment: show an antiviral effect

Imdevimab: monoclonal Ab administered intravenously in patients, used as positive control (Roche)
viral replication of SARS-CoV-2, basal treatment: show an antiviral effect
